According to patent publication US20250171437A1 (Agios Pharmaceuticals,Inc., priority 2022, published 2025):

These molecules were tested against T1, human PAH with the R408W mutation (A375 R408W cells) (Homo sapiens, UniProt P00439, R408W) (assay: Cell Based Phenylalanine Flux Assay). Details: A375 R408W cells; 24 hrs with compound, then 20 μM sepiapterin and 800 μM 13C9,15N-Phenylalanine for 4 hours; 13C-Tyrosine by LC-MS; average where tested multiple times.
T1 construct: expressed in transfected cells
T1 sequence (P00439 1-452 R408W): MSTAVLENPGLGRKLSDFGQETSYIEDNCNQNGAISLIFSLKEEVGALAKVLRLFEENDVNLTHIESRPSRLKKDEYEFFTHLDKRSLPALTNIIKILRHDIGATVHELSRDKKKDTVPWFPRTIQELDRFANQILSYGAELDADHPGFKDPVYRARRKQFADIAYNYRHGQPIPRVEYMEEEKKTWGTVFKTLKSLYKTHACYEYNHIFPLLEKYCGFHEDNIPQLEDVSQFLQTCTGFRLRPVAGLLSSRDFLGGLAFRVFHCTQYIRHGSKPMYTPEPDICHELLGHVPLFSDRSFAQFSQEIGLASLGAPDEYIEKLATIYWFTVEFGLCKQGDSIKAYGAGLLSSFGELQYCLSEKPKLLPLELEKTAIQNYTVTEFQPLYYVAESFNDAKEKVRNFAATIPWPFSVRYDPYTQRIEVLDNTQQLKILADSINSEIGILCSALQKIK
In short: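 Stable R408W PAH A375 cells: 24 h compound pretreatment in duplicate, then 4 h with 800 μM isotope-labelled Phe and 20 μM sepiapterin. Labelled Tyr output by LC-MS; AC50 averaged where repeated.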

Structure (SMILES) | AC50 [µM]
Cn1cc(-c2nnc(C(=O)N3CCc4[nH]cnc4[C@H]3c3nc4cc(F)ccc4o3)o2)cn1 [Example 67, (S)-(4-(5-fluorobenzo[d]oxazol-2-yl)-6,7-dihydro-1H-imidazo[4,5-c]pyridin-5(4H)-yl)(5-(1-methyl-1H-pyrazol-4-yl)-1,3,4-oxadiazol-2-yl)methanone] | 1 to 5
O=C(c1ocnc1C(F)F)N1CCc2[nH]cnc2[C@@H]1c1nc2c(C(F)(F)F)cccc2o1 [Example 466, (R)-(4-(difluoromethyl)oxazol-5-yl)(4-(4-(trifluoromethyl)benzo[d]oxazol-2-yl)-6,7-dihydro-1H-imidazo[4,5-c]pyridin-5(4H)-yl)methanone] | 0.5 to 1
O=C(c1cnco1)N1CCc2[nH]cnc2[C@@H]1c1nc2c(F)ccc(F)c2o1 [Example 484, (R)-(4-(4,7-difluorobenzo[d]oxazol-2-yl)-6,7-dihydro-1H-imidazo[4,5-c]pyridin-5(4H)-yl)(oxazol-5-yl)methanone] | 1 to 5
O=C(c1oc(-c2ccncc2)nc1C(F)F)N1CCc2[nH]cnc2[C@@H]1c1nc2cccc(F)c2o1 [Example 559, (R)-(4-(difluoromethyl)-2-(pyridin-4-yl)oxazol-5-yl)(4-(7-fluorobenzo[d]oxazol-2-yl)-6,7-dihydro-1H-imidazo[4,5-c]pyridin-5(4H)-yl)methanone] | ≤ 0.5
Cc1ccc2oc([C@@H]3c4nc[nH]c4CCN3C(=O)c3oc(-c4cn(C)cn4)nc3C(F)F)nc2c1 [Example 784, (S)-(4-(difluoromethyl)-2-(1-methyl-1H-imidazol-4-yl)oxazol-5-yl)(4-(5-methylbenzo[d]oxazol-2-yl)-6,7-dihydro-1H-imidazo[4,5-c]pyridin-5(4H)-yl)methanone] | ≤ 0.5
O=C(c1ocnc1C(F)F)N1CCc2[nH]cnc2[C@H]1c1nc2cc(F)ccc2o1 [Example 51, (S)-(4-(difluoromethyl)oxazol-5-yl)(4-(5-fluorobenzo[d]oxazol-2-yl)-6,7-dihydro-1H-imidazo[4,5-c]pyridin-5(4H)-yl)methanone] | ≤ 0.5
CC(C)(O)c1nc(C(F)F)c(C(=O)N2CCc3[nH]cnc3[C@H]2c2nc3c(F)c(F)ccc3o2)o1 [Example 347, (S)-(4-(4,5-difluorobenzo[d]oxazol-2-yl)-6,7-dihydro-1H-imidazo[4,5-c]pyridin-5(4H)-yl)(4-(difluoromethyl)-2-(2-hydroxypropan-2-yl)oxazol-5-yl)methanone] | 0.5 to 1
Cc1ccc(-c2nnc(C(=O)N3CCc4[nH]cnc4[C@@H]3c3nc4cc(F)ccc4o3)o2)nc1 [Example 125, (R)-(4-(5-fluorobenzo[d]oxazol-2-yl)-6,7-dihydro-1H-imidazo[4,5-c]pyridin-5(4H)-yl)(5-(5-methylpyridin-2-yl)-1,3,4-oxadiazol-2-yl)methanone] | 1 to 5
Cn1cc(C(=O)N2CCc3[nH]cnc3[C@H]2c2nc3cc(F)ccc3o2)c(C(F)F)n1 [Example 95, (S)-(3-(difluoromethyl)-1-methyl-1H-pyrazol-4-yl)(4-(5-fluorobenzo[d]oxazol-2-yl)-6,7-dihydro-1H-imidazo[4,5-c]pyridin-5(4H)-yl)methanone] | 0.5 to 1
Cc1cccc2nc([C@@H]3c4nc[nH]c4CCN3C(=O)c3nc(C(F)(F)F)nn3C)oc12 [Example 685, (S)-(1-methyl-3-(trifluoromethyl)-1H-1,2,4-triazol-5-yl)(4-(7-methylbenzo[d]oxazol-2-yl)-6,7-dihydro-1H-imidazo[4,5-c]pyridin-5(4H)-yl)methanone] | 0.5 to 1
O=C(c1oc(-c2ccccn2)nc1C(F)F)N1CCc2[nH]cnc2[C@@H]1c1nc2ccccc2o1 [Example 739, (R)-(4-(benzo[d]oxazol-2-yl)-6,7-dihydro-1H-imidazo[4,5-c]pyridin-5(4H)-yl)(4-(difluoromethyl)-2-(pyridin-2-yl)oxazol-5-yl)methanone] | 0.5 to 1
C[C@@H](O)c1nc(C(F)F)c(C(=O)N2CCc3[nH]cnc3[C@@H]2c2nc3cccc(F)c3o2)o1 [Example 246, (4-(difluoromethyl)-2-((R)-1-hydroxyethyl)oxazol-5-yl)((R)-4-(7-fluorobenzo[d]oxazol-2-yl)-6,7-dihydro-1H-imidazo[4,5-c]pyridin-5(4H)-yl)methanone] | ≤ 0.5

Other lines, results leading:

AC50 [µM] | Structure (SMILES)
≤ 0.5 | CC(C)(O)c1nc(C(F)F)c(C(=O)N2CCc3[nH]cnc3[C@H]2c2nc3ccccc3o2)o1 [Example 470, (S)-(4-(benzo[d]oxazol-2-yl)-6,7-dihydro-1H-imidazo[4,5-c]pyridin-5(4H)-yl)(4-(difluoromethyl)-2-(2-hydroxypropan-2-yl)oxazol-5-yl)methanone]
≤ 0.5 | Cc1cccc2nc([C@@H]3c4nc[nH]c4CCN3C(=O)c3cc(C(F)F)nn3C)oc12 [Example 735]
≤ 0.5 | O=C(c1nnc(-c2ccn(C(F)F)n2)o1)N1CCc2[nH]cnc2[C@H]1c1nc2cccc(C(F)(F)F)c2o1 [Example 854, (S)-(5-(1-(difluoromethyl)-1H-pyrazol-3-yl)-1,3,4-oxadiazol-2-yl)(4-(7-(trifluoromethyl)benzo[d]oxazol-2-yl)-6,7-dihydro-1H-imidazo[4,5-c]pyridin-5(4H)-yl)methanone]
1 to 5 | c1ccc2oc([C@H]3c4nc[nH]c4CN3c3nc4ccccc4o3)nc2c1 (single isomer, unassigned) [Example 932]
1 to 5 | COc1cc(F)cc2nc([C@H]3c4nc[nH]c4CCN3C(=O)c3oc(C(C)(C)O)nc3C(F)F)oc12 [Example 716, (R)-(4-(difluoromethyl)-2-(2-hydroxypropan-2-yl)oxazol-5-yl)(4-(5-fluoro-7-methoxybenzo[d]oxazol-2-yl)-6,7-dihydro-1H-imidazo[4,5-c]pyridin-5(4H)-yl)methanone]
1 to 5 | Cc1ncoc1C(=O)N1Cc2[nH]cnc2[C@H]1c1nc2ccccc2o1 [Example 941, (S)-(4-(benzo[d]oxazol-2-yl)-4,6-dihydropyrrolo[3,4-d]imidazol-5(1H)-yl)(4-methyloxazol-5-yl)methanone]
1 to 5 | Cc1nc(-c2cnn(C)c2)oc1C(=O)N1CCc2[nH]cnc2[C@@H]1c1nc2cccc(F)c2o1 [Example 595, (R)-(4-(7-fluorobenzo[d]oxazol-2-yl)-6,7-dihydro-1H-imidazo[4,5-c]pyridin-5(4H)-yl)(4-methyl-2-(1-methyl-1H-pyrazol-4-yl)oxazol-5-yl)methanone]

Same assay, conditions: A375 cells expressing R408W PAH; 24 hrs with compound, then 20 μM sepiapterin and 800 μM 13C9,15N-Phenylalanine for 4 hours; 13C-Tyrosine by LC-MS; average where tested multiple times

Structure (SMILES) | AC50 [µM]
Cc1cccc2nc(C3c4nc[nH]c4CCN3C(=O)c3ccn(-c4ccccn4)n3)oc12 (centres unmarked) | ≥ 5
Cn1nc(C(F)F)cc1C(=O)N1CCc2[nH]cnc2C1c1nc2cc(F)ccc2o1 (centres unmarked) | 1 to 5
CC(C)(O)c1ncc(C(=O)N2CCc3[nH]cnc3C2c2nc3c(F)ccc(F)c3o2)o1 (centres unmarked) | 1 to 5

Continued, values first:

AC50 [µM] | Structure (SMILES)
1 to 5 | Cn1cc(-c2ncc(C(=O)N3CCc4[nH]cnc4C3c3nc4ccc(Br)cc4o3)s2)cn1 (centres unmarked)
1 to 5 | Cn1cc(-c2ncc(C(=O)N3CCc4[nH]cnc4C3c3nc4cc(F)ccc4o3)o2)cn1 (centres unmarked)
1 to 5 | Cn1ccc(-c2nnc(C(=O)N3CCc4[nH]cnc4C3c3nc4cc(C(F)(F)F)ccc4o3)o2)n1 (centres unmarked)
1 to 5 | O=C(c1nnc(-c2cnn(S(=O)(=O)C3CC3)c2)o1)N1CCc2[nH]cnc2C1c1nc2cc(F)ccc2o1 (centres unmarked)
≥ 5 | Nc1cc2c(C(=O)N3CCc4[nH]cnc4C3c3nc4cc(F)ccc4o3)cnn2cc1F (centres unmarked)
≥ 5 | Cn1nc(C(C)(C)C)cc1C(=O)N1CCc2[nH]cnc2C1c1nc2cccc(F)c2o1 (centres unmarked)
1 to 5 | Cn1nc(-c2ccccn2)nc1C(=O)N1CCc2[nH]cnc2C1c1nc2cccc(F)c2o1 (centres unmarked)
